For 35 compounds, IC50 results are on record in patent US8653089B2, “Heterocyclic compounds and methods of use” (F. Hoffmann-La Roche AG, priority 2011, dated 2014).

Some results are limits rather than exact numbers.

The test system of one experiment is production of CD69 by B lymphocytes in human whole blood activated by crosslinking surface IgM. Nature of the experiment: CD69 human whole blood assay (Example 903), FACS. To be noted: B lymphocytes activated with goat F(ab')2 anti-human IgM, read-out: CD69 Hu Blood FACS IC50. Format: cell-based. From the text: There is good evidence that B-cells play a key role in the pathogenesis of autoimmune and/or inflammatory disease. Protein-based therapeutics that deplete B cells such as Rituxan are effective against autoantibody-driven inflammatory diseases such as rheumatoid arthritis (Rastetter et al. (2004) Annu Rev Med 55:477). CD69 is the early activation marker in leukocytes including T cells, thymocytes, B cells, NK cells, neutrophils, and eosinophils. The CD69 human whole blood assay (Example 903) determines the ability of compounds to inhibit the production of CD69 by B lymphocytes in human whole blood activated by crosslinking surface IgM with goat F(ab′)2 anti-human IgM.
Consider `CC(Nc1ncnc2[nH]cnc12)c1nc2ccc(F)cc2n1-c1cccnc1` (centres unmarked) [Example 220, [1-(6-Fluoro-1-pyridin-3-yl-1H-benzoimidazol-2-yl)-ethyl]-(9H-purin-6-yl)-amine], for which the IC50 came out at 12.7 nM.

In the case of `CC(Nc1ncnc2[nH]cnc12)c1nc2ccc(F)cc2n1-c1ccccn1` (centres unmarked) [Example 210, [1-(6-Fluoro-1-pyridin-2-yl-1H-benzoimidazol-2-yl)-ethyl]-(9H-purin-6-yl)-amine], the IC50 turned out to be 20.2 nM.

On to `CC(Nc1ncnc2[nH]cnc12)c1nc2ccc(F)cc2n1-c1ccccn1` (centres unmarked) [Example 182, [1-(6-Fluoro-1-pyridin-2-yl-1H-benzoimidazol-2-yl)-ethyl]-(9H-purin-6-yl)-amine], for which the IC50 amounted to 67.1 nM.

Still in this experiment, the particulars now being: Homo sapiens, Lymphocyte, B lymphocytes activated with goat F(ab')2 anti-human IgM, read-out: CD69 Hu Blood FACS IC50.
`C[C@H](Nc1ccncc1C#N)c1nc2ccc(F)cc2n1-c1ccccc1` [Example 312, 4-[(S)-1-(6-Fluoro-1-phenyl-1H-benzoimidazol-2-yl)-ethylamino]-nicotinonitrile]: the IC50 turned out to be 3900 nM.

Regarding `C[C@H](Nc1ncnc2[nH]cnc12)c1nc2ccc(F)cc2n1-c1cncc(F)c1` [Example 260, {(S)-1-[6-Fluoro-1-(5-fluoro-pyridin-3-yl)-1H-benzoimidazol-2-yl]-ethyl}-(9H-purin-6-yl)-amine], the IC50 worked out at 25.7 nM.

Consider `C[C@H](Nc1ncnc(N)c1C#N)c1nc2ccc(F)cc2n1-c1cnn(C)c1` [Example 418, 4-amino-6-[[(1S)-1-[6-fluoro-1-(1-methylpyrazol-4-yl)benzimidazol-2-yl]ethyl]amino]pyrimidine-5-carbonitrile], for which the IC50 was determined as 107 nM.

As for `COC[C@H](Nc1ncnc2[nH]cnc12)c1nc2ccc(F)c(C)c2n1-c1ccccc1` [Example 188, [(R)-1-(6-Fluoro-7-methyl-1-phenyl-1H-benzoimidazol-2-yl)-2-methoxy-ethyl]-(9H-purin-6-yl)-amine], the IC50 stood at 149 nM.

For `C[C@H](Nc1ncnc2[nH]cnc12)c1nc2ccc(F)cc2n1-c1cnn(C)c1` [Example 419, N-[(1S)-1-[6-fluoro-1-(1-methylpyrazol-4-yl)benzimidazol-2-yl]ethyl]-9H-purin-6-amine], the half-inhibitory concentration (IC50) came out at 43.3 nM.

In the case of `C[C@H](Nc1ncnc(N)c1C#N)c1nc2ccc(F)c(C(=O)N3CCOCC3)c2n1C1CC1` [Example 401, 4-amino-6-[[(1S)-1-[1-cyclopropyl-6-fluoro-7-(morpholine-4-carbonyl)benzimidazol-2-yl]ethyl]amino]pyrimidine-5-carbonitrile], the IC50 is 23.2 nM.

As to `C[C@H](Nc1ncnc2[nH]cnc12)c1nc2ccc(F)c(C(=O)N3CCOCC3)c2n1-c1ccccc1` [Example 273, {5-Fluoro-3-phenyl-2-[(S)-1-(9H-purin-6-ylamino)-ethyl]-3H-benzoimidazol-4-yl}-morpholin-4-yl-methanone], the 50% inhibitory concentration (IC50) amounted to 26.8 nM.

As to `CC(Nc1ncnc2[nH]cnc12)c1nc2ccc(F)cc2n1-c1ccc(F)cn1` (centres unmarked) [Example 208, {1-[6-Fluoro-1-(5-fluoro-pyridin-2-yl)-1H-benzoimidazol-2-yl]-ethyl}-(9H-purin-6-yl)-amine], the IC50 stood at 206 nM.

On to `C[C@H](Nc1ncnc2[nH]cnc12)c1nc2ccc(F)c(C3CC3)c2n1-c1ccccn1` [Example 274, [(S)-1-(7-Cyclopropyl-6-fluoro-1-pyridin-2-yl-1H-benzoimidazol-2-yl)-ethyl]-(9H-purin-6-yl)-amine], for which the IC50 was 26.8 nM.

Consider `CC(C)C(Nc1ncnc2[nH]cnc12)c1nc2ccc(F)cc2n1-c1cccnc1` (centres unmarked) [Example 206, [1-(6-Fluoro-1-pyridin-3-yl-1H-benzoimidazol-2-yl)-2-methyl-propyl]-(9H-purin-6-yl)-amine], for which the IC50 is 54.7 nM.

As for `CCC(Nc1ncnc2[nH]cnc12)c1nc2ccc(F)cc2n1-c1cccnc1` (centres unmarked) [Example 205, [1-(6-Fluoro-1-pyridin-3-yl-1H-benzoimidazol-2-yl)-propyl]-(9H-purin-6-yl)-amine], the IC50 is 42.9 nM.

For `Fc1ccc2nc(CNc3ncnc4[nH]cnc34)n(-c3ccccc3)c2c1` [Example 443, (6-Fluoro-1-phenyl-1H-benzoimidazol-2-ylmethyl)-(9H-purin-6-yl)amine], the 50% inhibitory concentration (IC50) is > 5000 nM.

For the compound `CC(Nc1ncnc2[nH]cnc12)c1nc2ccc(F)c(O)c2n1-c1ccccc1` (centres unmarked) [Example 327, 5-Fluoro-3-phenyl-2-[1-(9H-purin-6-ylamino)-ethyl]-3H-benzoimidazol-4-ol], the IC50 turned out to be 196 nM.

Take `C[C@H](Nc1ncnc(N)c1C#N)c1nc2ccc(F)cc2n1-c1ccccc1` [Example 246, 4-Amino-6-[(S)-1-(6-fluoro-1-phenyl-1H-benzoimidazol-2-yl)-ethylamino]-pyrimidine-5-carbonitrile]: the concentration for half-maximal inhibition (IC50) is 16.7 nM.

On to `COc1ccc(-n2c(C(C)Nc3ncnc4[nH]cnc34)nc3ccc(F)cc32)cn1` (centres unmarked) [Example 207, {1-[6-Fluoro-1-(6-methoxy-pyridin-3-yl)-1H-benzoimidazol-2-yl]-ethyl}-(9H-purin-6-yl)-amine], for which the half-maximal inhibitory concentration (IC50) was 798 nM.

Turning to `C[C@H](Nc1ncnc(N)c1C#N)c1nc2ccc(F)c(-c3ccccc3)c2n1C1CC1` [Example 415, 4-amino-6-[[(1S)-1-(1-cyclopropyl-6-fluoro-7-phenyl-benzimidazol-2-yl)ethyl]amino]pyrimidine-5-carbonitrile], the IC50 is 224 nM.

Consider `COC(=O)c1c(F)ccc2nc(C(C)Nc3ncnc4[nH]cnc34)n(-c3ccccc3)c12` (centres unmarked) [Example 197, 5-Fluoro-3-phenyl-2-[1-(9H-purin-6-ylamino)-ethyl]-3H-benzoimidazole-4-carboxylic acid methyl ester], for which the IC50 was 31.6 nM.

Take `C[C@H](Nc1ncncc1C#N)c1nc2ccc(F)cc2n1-c1ccccc1` [Example 316, 4-[(S)-1-(6-Fluoro-1-phenyl-1H-benzoimidazol-2-yl)-ethylamino]-pyrimidine-5-carbonitrile]: the IC50 was found to be 481 nM.

Regarding `C[C@H](Nc1ncnc(N)c1C#N)c1nc2ccc(F)cc2n1-c1ccnn1C` [Example 416, 4-amino-6-[[(1S)-1-[6-fluoro-1-(2-methylpyrazol-3-yl)benzimidazol-2-yl]ethyl]amino]pyrimidine-5-carbonitrile], the IC50 was found to be 67.8 nM.

As for `C[C@H](Nc1ncnc(N)c1C#N)c1nc2ccc(F)c3c2n1CCCC3` [Example 406, 4-Amino-6-[(S)-1-(5-fluoro-6,7,8,9-tetrahydro-2,9a-diazabenzo[cd]azulen-1-yl)ethylamino]pyrimidine-5-carbonitrile], the IC50 was determined as 32.6 nM.

For `CC(Nc1ncnc2[nH]cnc12)c1nc2ccc(F)cc2n1-c1ccc(F)cc1` (centres unmarked) [Example 221, {1-[6-Fluoro-1-(4-fluoro-phenyl)-1H-benzoimidazol-2-yl]-ethyl}-(9H-purin-6-yl)-amine], the IC50 turned out to be 152 nM.

Regarding `C[C@H](Nc1ncnc(N)c1C#N)c1nc2ccc(F)c(-c3ccccn3)c2n1C1CC1` [Example 442, 4-Amino-6-[(S)-1-(1-cyclopropyl-6-fluoro-7-pyridin-2-yl-1H-benzoimidazol-2-yl)ethylamino]-pyrimidine-5-carbonitrile], the concentration for half-maximal inhibition (IC50) worked out at 797 nM.

With `C[C@H](Nc1ncnc2[nH]cnc12)c1nc2ccc(F)cc2n1-c1ccnn1C` [Example 417, N-[(1S)-1-[6-fluoro-1-(2-methylpyrazol-3-yl)benzimidazol-2-yl]ethyl]-9H-purin-6-amine], the IC50 worked out at 140 nM.

For `CC(Nc1ncnc2[nH]cnc12)c1nc2ccc(F)cc2n1-c1cncc(F)c1` (centres unmarked) [Example 263, {1-[6-Fluoro-1-(5-fluoro-pyridin-3-yl)-1H-benzoimidazol-2-yl]-ethyl}-(9H-purin-6-yl)-amine], the IC50 amounted to 25.4 nM.

`OC[C@H](Nc1ncnc2[nH]cnc12)c1nc2ccc(F)cc2n1-c1ccccn1` [Example 280, (R)-2-(6-Fluoro-1-pyridin-2-yl-1H-benzoimidazol-2-yl)-2-(9H-purin-6-ylamino)-ethanol]: the IC50 is 139 nM.

In the case of `C[C@H](Nc1ncnc2[nH]cnc12)c1nc2ccc(F)cc2n1-c1ccc2c(c1)OCO2` [Example 320, [(S)-1-(l-Benzo[1,3]dioxol-5-yl-6-fluoro-1H-benzoimidazol-2-yl)-ethyl]-(9H-purin-6-yl)-amine], the IC50 was found to be 253 nM.

Regarding `COc1c(F)ccc2nc([C@H](C)Nc3ncnc(N)c3C#N)n(-c3ccccc3)c12` [Example 339, 4-Amino-6-[(S)-1-(6-fluoro-7-methoxy-1-phenyl-1H-benzoimidazol-2-yl)-ethylamino]-pyrimidine-5-carbonitrile], the IC50 came to 4.93 nM.

`COCC(Nc1ncnc2nc[nH]c12)c1nc2ccc(F)cc2n1-c1ccccc1` (centres unmarked) [Example 171, [1-(6-Fluoro-1-phenyl-1H-benzoimidazol-2-yl)-2-methoxy-ethyl]-(7H-purin-6-yl)-amine]: the IC50 came to 106 nM.

Turning to `C[C@H](Nc1ncnc(N)c1C#N)c1nc2cccnc2n1-c1ccccc1` [Example 337, 4-Amino-6-[(S)-1-(3-phenyl-3H-imidazo[4,5-b]pyridin-2-yl)-cthylamino]-pyrimidine-5-carbonitrile], the IC50 was 96.6 nM.

For `Cc1nccc(N[C@@H](C)c2nc3ccc(F)cc3n2-c2ccccc2)c1C#N` [Example 340, 4-[(S)-1-(6-Fluoro-1-phenyl-1H-benzoimidazol-2-yl)-ethylamino]-2-methyl-nicotinonitrile], the IC50 is 606 nM.

In the case of `C[C@H](Nc1ncnc(N)c1C#N)c1nc2ccc(F)cc2n1-c1ccn(C)n1` [Example 402, 4-amino-6-[[(1S)-1-[6-fluoro-1-(1-methylpyrazol-3-yl)benzimidazol-2-yl]ethyl]amino]pyrimidine-5-carbonitrile], the IC50 came to 64.7 nM.

With `Cc1c(F)ccc2nc([C@H](C)Nc3ncnc4[nH]cnc34)n(-c3ccccc3)c12` [Example 183, [(S)-1-(6-Fluoro-7-methyl-1-phenyl-1H-benzoimidazol-2-yl)-ethyl]-(9H-purin-6-yl)-amine], the IC50 is 26.2 nM.
